# Data as given in PubChem BioAssay (NCI).
# Several values for one entry are separate records, joined by “and”; a condition that tells them apart may be missing. Identical values can stand only once.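 Following 48 hours of exposure in 96-well plates, responses at five concentrations were used to interpolate endpoints linearly. GI50 = concentration required for 50% inhibition of growth. TGI: total growth inhibition.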
# What was measured:
# Assay in all cases: NCI tumour cell line growth inhibition, 48 h
# SNB-78 CNS = tested on: SNB-78 CNS
# KM20L2 colon = tested on: KM20L2 colon
# DMS 114 small cell lung = tested on: DMS 114 small cell lung
# LXFL 529 NSCLC = tested on: LXFL 529 NSCLC
# DMS 273 small cell lung = tested on: DMS 273 small cell lung
# SN12K1 renal = tested on: SN12K1 renal
# P388/ADR leukemia = tested on: P388/ADR leukemia
# HOP-18 NSCLC = tested on: HOP-18 NSCLC
# RXF-631 renal = tested on: RXF-631 renal
# P388 leukemia = tested on: P388 leukemia
# XF 498 CNS = tested on: XF 498 CNS
# MDA-N = tested on: MDA-N
Structure (SMILES),TGI (SNB-78 CNS) [µM],TGI (KM20L2 colon),TGI (DMS 114 small cell lung),TGI (LXFL 529 NSCLC),TGI (DMS 273 small cell lung),TGI (HOP-18 NSCLC),TGI (RXF-631 renal) [µM],TGI (XF 498 CNS),TGI (MDA-N),other results
O=C(CC1=Nc2nnc(-c3nnc4n3C(=O)C(CC(=O)C3CC3)=N4)n2C1=O)C1CC1,> 100,> 100 µM,> 100 µM,> 100 µM,> 100 µM,–,–,–,–,–
Nc1nc(=S)c2[nH]cnc2[nH]1,172,67.4 µM,36.3 µM,233 µM,39.1 µM,139 µM,113,8.35 µM,–,TGI (SN12K1 renal): 11.2 µM; TGI (P388/ADR leukemia): 12.9 µM; TGI (P388 leukemia): 6.43 µM; GI50 (MDA-N): 0.541 µM and 1.24 µM
C[C@]12CCC3=NCCN3C1=CC[C@@H]1[C@@H]2CC[C@@]2(C)[C@H]1CC[C@]2(C)O,–,–,–,–,–,–,–,–,> 100 µM,–
C=C(Cl)[C@@](Cl)(CBr)CC[C@@H](Br)C(C)(C)Cl,–,–,–,–,–,–,–,–,–,GI50 (MDA-N): 1.69 µM
OCC(O)C(O)C(O)C(O)c1nn[nH]n1 (centres undefined),> 100,–,> 100 µM,> 100 µM,> 100 µM,–,–,> 100 µM,–,–
NNC(=O)N/N=C1\CN(c2ccc(Cl)cc2Cl)C(=O)C(=O)C1c1nc2ccccc2o1 (centres undefined),> 100,> 100 µM,> 100 µM,> 100 µM,> 100 µM,–,> 100,> 100 µM,–,–
O=C(Oc1ccc2c(c1)CN(Cc1ccccc1)CO2)c1ccccc1,–,–,–,–,–,–,–,–,30.7 µM,–
COc1ccc(C(=O)O/N=C2/CCCCC2CN(C)C)cc1 (centres undefined),> 100,> 100 µM,–,> 100 µM,> 100 µM,> 100 µM,> 100,–,–,–
COC(=O)C(=O)C(C(=O)C(=O)Nc1ccc(C)c(C)c1)c1nc2ccc([N+](=O)[O-])cc2[nH]c1=O (centres undefined),–,–,–,–,–,–,–,–,> 100 µM,–
COc1cc(CCc2ccc(OC(C)=O)cc2)cc(OC)c1OC,> 100,> 100 µM,> 100 µM,> 100 µM,> 100 µM,> 100 µM,–,–,–,–
COc1cc(N(CCC#N)CCC#N)ccc1/C(N=Nc1ccc(C(=O)O)cc1)=N/NC(=O)c1cc(Br)ccc1O,–,–,–,–,–,–,–,–,> 150 µg/mL,GI50 (MDA-N): 108 µg/mL
O=C(/C(=C/c1ccc(O)cc1)c1ccccc1)c1ccccc1,70.9,–,24.4 µM,35.7 µM,–,33.4 µM,29.3,–,–,–
COCC1N=C(c2cc(OC)c(OC)c(OC)c2-c2cc3c(cc2[C@H](C)O)OCO3)O[C@H]1c1ccccc1 (some centres undefined),> 100,> 100 µM,–,> 100 µM,> 100 µM,> 100 µM,> 100,–,–,–
Nc1nc(=S)[nH]c(C(=O)Nc2nccs2)c1-c1ccccc1,> 100,> 100 µM,> 100 µM,> 100 µM,> 100 µM,> 100 µM,–,> 100 µM,–,–
O=c1[nH]c2ccc([N+](=O)[O-])cc2nc1/C(=N/Nc1ccccc1)C(O)c1ccco1 (centres undefined),> 100,> 100 µM,> 100 µM,> 100 µM,> 100 µM,–,–,> 100 µM,–,–
Cc1nc2c(Br)cc(Br)cc2c(=O)n1-c1ccccc1NC1OCC(O)C(O)C1O (centres undefined),–,–,–,–,–,–,–,–,> 100 µM,–
Nc1ccc(C(=O)/C=C/c2ccccc2O)cc1,> 100,> 100 µM,–,> 100 µM,–,–,> 100,> 100 µM,–,–
[Cl-].[Gd+3].[O-]/N=C(\c1ccccc1)c1ccccn1.[O-]/N=C(\c1ccccc1)c1ccccn1.[O-]/N=C(\c1ccccc1)c1ccccn1,–,> 100 µM,> 100 µM,> 100 µM,> 100 µM,–,–,–,–,GI50 (KM20L2 colon): 39.7 µM; GI50 (DMS 114 small cell lung): 36.8 µM; GI50 (LXFL 529 NSCLC): 50.1 µM; GI50 (DMS 273 small cell lung): 43.8 µM
C/C(CC(=O)Nc1cccc([N+](=O)[O-])c1)=N\NC(=O)C[n+]1ccccc1,> 100,> 100 µM,> 100 µM,> 100 µM,–,–,–,> 100 µM,–,–

Structure (SMILES),TGI (SNB-78 CNS) [µM],TGI (KM20L2 colon),TGI (DMS 114 small cell lung),TGI (LXFL 529 NSCLC),TGI (DMS 273 small cell lung),TGI (HOP-18 NSCLC),TGI (RXF-631 renal) [µM],TGI (XF 498 CNS),TGI (MDA-N),other results
O=NN(CCCl)C(=O)NC1CCCCC1,–,96.9 µM and 144 µM and 350 µM,38.8 µM and 112 µM and 183 µM,32.8 µM and 111 µM and 76.6 µM,65.1 µM and 124 µM and 170 µM,56.2 µM and 152 µM,132,36.4 µM and 128 µM and 114 µM,134 µM,TGI (SN12K1 renal): 101 µM; GI50 (KM20L2 colon): 34.3 µM and 163 µM; GI50 (DMS 114 small cell lung): 20.7 µM and 70.3 µM; TGI (P388/ADR leukemia): 47.4 µM; GI50 (HOP-18 NSCLC): 84.4 µM; GI50 (LXFL 529 NSCLC): 17.3 µM; GI50 (RXF-631 renal): 25 µM; TGI (P388 leukemia): 34.4 µM; GI50 (DMS 273 small cell lung): 28.2 µM and 76.7 µM; GI50 (XF 498 CNS): 18 µM and 82 µM
c1ccc2c3c([nH]c2c1)C1C2CCCCN2C(c2ccncc2)N1CC3 (centres undefined),> 100,67.1 µM,83.5 µM,> 100 µM,> 100 µM,–,–,98 µM,–,–
CCCCCCCCCCCCCCCC(=O)OCC1OC(n2cc(F)c(=O)[nH]c2=O)C(NC(=O)N(CCCl)N=O)C(O)C1O (centres undefined),18.1,18.4 µM,5.02 µM,15.8 µM,4.3 µM,33.3 µM,17.9,–,–,–
COC(=O)CC1CC2(C(=O)OC)c3[nH]c4ccccc4c3CCN2C1=O (centres undefined),> 100,> 100 µM,> 100 µM,> 100 µM,> 100 µM,> 100 µM,31.3,> 100 µM,–,–
COc1ccc2c(c1)[n+](=O)c(C(C)=O)c(C)n2[O-],> 100,–,> 100 µM,> 100 µM,–,> 100 µM,–,> 100 µM,–,–
Cc1ccc(C2=C(Cl)C(=O)C(c3ccc(C)cc3)=C(Cl)C2=O)cc1,–,–,–,–,–,–,–,–,> 100 µM,–
COc1ccc(/C(CC2OC(=O)c3ccccc32)=N\NC(N)=O)cc1 (centres undefined),–,–,–,–,–,–,–,–,> 100 µM,–
CC1OC(OC2C(O[C@H]3CC[C@@]4(C)C(=CC[C@H]5[C@@H]6C[C@@H]7O[C@]8(CC[C@@H](C)CO8)[C@@H](C)[C@@H]7[C@@]6(C)CC[C@@H]54)C3)OC(CO)C(OC3OC(CO)C(O)C3O)C2O)C(O)C(O)C1O (some centres undefined),–,–,–,–,–,–,–,–,1.46 µM and 2.34 µM,GI50 (MDA-N): 1.13 µM
COC(=O)C1CCC(=O)N1/C(C)=N/NC(=O)Nc1ccc(Cl)c(Cl)c1 (centres undefined),> 100,> 100 µM,> 100 µM,> 100 µM,> 100 µM,–,–,> 100 µM,–,–
CN(C)c1ccc(N=C2C=CC(=C(C#N)C#N)c3ccccc32)cc1,16.7,–,0.666 µM,–,12.6 µM,16.3 µM,–,1.65 µM,0.441 µM,–
Nc1ncnc2c1nc(Cl)n2C1OC(CO)C(O)C1O (centres undefined),–,–,–,–,–,–,–,–,> 100 µM,–
O=C(O)Cn1ccc(=O)c2cc([N+](=O)[O-])ccc21,–,–,–,–,–,–,–,–,> 100 µM,–
CN(C)c1ccc(C2CC(C)(O)Oc3cc4c(cc32)OCO4)cc1 (centres undefined),–,–,–,–,–,–,–,–,> 100 µM,–
N#CCCN(CCC#N)c1ccc(C=Nc2ccc(F)cc2)cc1,> 100,> 100 µM,> 100 µM,> 100 µM,> 100 µM,> 100 µM,> 100,> 100 µM,> 100 µM,–
CCCCCCCCCCCCCCC(C)CCC(=O)O (centres undefined),> 100,–,–,–,–,> 100 µM,–,> 100 µM,–,–
CC1=CCN(c2ccccn2)OC1c1ccccc1 (centres undefined),> 100,> 100 µM,> 100 µM,> 100 µM,> 100 µM,> 100 µM,> 100,> 100 µM,–,–
CCOc1ccccc1NC(=O)C1=C(C)NC(C)=C(C(=O)Nc2ccccc2OCC)C1c1ccc([N+](=O)[O-])cc1,> 100,> 100 µM,> 100 µM,> 100 µM,> 100 µM,> 100 µM,> 100,–,–,–
O=C(/C=C(\[O-])c1ccccc1)CCCCCCC(=O)/C=C(\[O-])c1ccccc1.O=C(/C=C(\[O-])c1ccccc1)CCCCCCC(=O)/C=C(\[O-])c1ccccc1.O=C(/C=C(\[O-])c1ccccc1)CCCCCCC(=O)/C=C(\[O-])c1ccccc1.[Nd+3].[Nd+3],–,> 50 µM,–,–,–,–,–,–,–,GI50 (KM20L2 colon): > 50 µM
CCCCC[C@@H](C/C=C/CCC(=O)NC/C(=C/Cl)[C@H]1C(=O)C(C)(C)C(=O)[C@@H](C)[C@@]1(C)O)OC,–,–,–,–,–,–,–,–,36.1 µM,GI50 (MDA-N): 18.4 µM
